Results from US11311624B2, “Inhibitors of MEK/PI3K, JAK/MEK, JAK/PI3K/mTOR and MEK/PI3K/mTOR biological pathways and methods for improving lymphatic uptake, bioavailability, and solubility of therapeutic compounds” (THE REGENTS OF THE UNIVERSITY OF MICHIGAN, priority 2017, dated 2022).
Read-outs that look alike come from different tables or passages of the source. Values belong to the molecule of their own block, whether it stands above or below them.

Legend:
Class 1 PI3K isoforms = details: read-out: selectivity towards the Class 1 PI3K isoforms; cited from earlier work
[1] = Tissue concentration partitioning (plasma, mesenteric lymph node, fat) after single oral dose in Maisine, LC-MS/MS; assay type: in vivo; details: mice, single oral 10 mg in Maisine; for Kp at 4 h: 4 hour time point; for concentration at 4 h: 4 hours post-dosing
Source text: Inhibitor compounds were synthesized to discover the underlying parameters needed in the development of chemical modifiers compatible with attachment to drug molecules to provide a drug having the physiochemical characteristics needed for uptake into the lymphatic system. […] This excipient vehicle contains long chain fatty acids and is used for hydrophobic compound solubilization.
Results were quantified using LC-MS/MS for plasma, mesenteric lymph node (LN) and mesenteric fat tissues.

[2] = Plasma and lymphatic tissue levels after single oral dose of ST-168 or PD901, LC-MS/MS (FIG. 3); assay type: in vivo; details: lymphatic tissue / plasma; mouse, single oral dose in ORA-Plus suspension, 4 hours post-administration; read-out: lymphatic/plasma ratio
Description: LC-MS/MS quantification of drug concentrations in mouse tissues over time following a single oral dose is shown. FIG. 3 contains block diagrams for formulations in ORA-Plus liquid particulate suspension: FIG. 3A compound ST-168 levels at 4 hours in plasma and lymphatic tissue versus the MEK inhibitor PD0325901 (henceforth referred to as PD901). FIG. 3B ST-168 time dependence in plasma and lymphatic tissue, and formulated in Maisine, FIG. 3C ST-168 time dependence in plasma and lymphatic tissue following 100 mg/kg dose.
In FIG. 3, LC-MS/MS quantification of drug concentrations in mouse tissues over time are shown following a single oral suspension dose of ST-168 delivered in ORA-Plus®. ORA-Plus is an aqueous-based vehicle (ORA-Plus Product Data Sheet available at Perrigo Company's website) containing a synergistic blend of suspending agents having a high degree of colloidal activity. The suspending agents form a structured, gel-like matrix which suspends particles and allow for little settling. ORA-Plus is buffered to a slightly acidic pH to help reduce degradation of medicinal agents through oxidation. The ORA-Plus contains purified water, microcrystalline cellulose, carboxymethylcellulose sodium, xanthan gum, carrageenan, calcium sulfate, trisodium phosphate, citric acid and sodium phosphate as buffers and dimethicone antifoam emulsion, preserved with methylparaben and potassium sorbate. […] Any compound delivered in ORA-Plus is distributed to the plasma and lymphatic system based upon the physiochemical properties of the drug. Thus, the formulation itself only serves to provide for a suspension of drug particulates and dissolution of drug will be based upon water solubility.
This is an important distinction showing that Compound ST-168 has lymphatic absorptive properties because ORA-Plus is not a long chain fatty acid like Maisine. […] Data presented in FIGS. 3A through 3D reveal that the mEG linker technology for chemical coupling with drugs produces solubility properties consistent with formulation and bioavailability required for drug-like pharmaceutical characteristics and improved lymphatic absorption.

MEK1 = MEK1 (Homo sapiens, UniProt Q02750); assay: In vitro inhibition of MEK1; assay type: biochemical
PI3Kδ = PI3Kδ (Homo sapiens, UniProt O00329); assay: In vitro inhibition of PI3Kδ; assay type: biochemical; details: Table 14; read-out: IC50 (nM) PI3Kδ
PI3Kγ = PI3Kγ (Homo sapiens, UniProt P48736); assay: In vitro inhibition of PI3Kγ; assay type: biochemical; details: Table 14; read-out: IC50 (nM) PI3Kγ
PI3Kα = PI3Kα (Homo sapiens, UniProt P42336); assay: In vitro inhibition of PI3Kα; assay type: biochemical; details: Table 14; read-out: IC50 (nM) PI3Kα
PI3Kβ = PI3Kβ (Homo sapiens, UniProt P42338); assay: In vitro inhibition of PI3Kβ; assay type: biochemical; details: Table 14; read-out: IC50 (nM) PI3Kβ
[3] = mouse, mesenteric lymph node / plasma, read-out: lymph/plasma ratio

Chain of PI3Kγ (P48736 whole entry, species assumed): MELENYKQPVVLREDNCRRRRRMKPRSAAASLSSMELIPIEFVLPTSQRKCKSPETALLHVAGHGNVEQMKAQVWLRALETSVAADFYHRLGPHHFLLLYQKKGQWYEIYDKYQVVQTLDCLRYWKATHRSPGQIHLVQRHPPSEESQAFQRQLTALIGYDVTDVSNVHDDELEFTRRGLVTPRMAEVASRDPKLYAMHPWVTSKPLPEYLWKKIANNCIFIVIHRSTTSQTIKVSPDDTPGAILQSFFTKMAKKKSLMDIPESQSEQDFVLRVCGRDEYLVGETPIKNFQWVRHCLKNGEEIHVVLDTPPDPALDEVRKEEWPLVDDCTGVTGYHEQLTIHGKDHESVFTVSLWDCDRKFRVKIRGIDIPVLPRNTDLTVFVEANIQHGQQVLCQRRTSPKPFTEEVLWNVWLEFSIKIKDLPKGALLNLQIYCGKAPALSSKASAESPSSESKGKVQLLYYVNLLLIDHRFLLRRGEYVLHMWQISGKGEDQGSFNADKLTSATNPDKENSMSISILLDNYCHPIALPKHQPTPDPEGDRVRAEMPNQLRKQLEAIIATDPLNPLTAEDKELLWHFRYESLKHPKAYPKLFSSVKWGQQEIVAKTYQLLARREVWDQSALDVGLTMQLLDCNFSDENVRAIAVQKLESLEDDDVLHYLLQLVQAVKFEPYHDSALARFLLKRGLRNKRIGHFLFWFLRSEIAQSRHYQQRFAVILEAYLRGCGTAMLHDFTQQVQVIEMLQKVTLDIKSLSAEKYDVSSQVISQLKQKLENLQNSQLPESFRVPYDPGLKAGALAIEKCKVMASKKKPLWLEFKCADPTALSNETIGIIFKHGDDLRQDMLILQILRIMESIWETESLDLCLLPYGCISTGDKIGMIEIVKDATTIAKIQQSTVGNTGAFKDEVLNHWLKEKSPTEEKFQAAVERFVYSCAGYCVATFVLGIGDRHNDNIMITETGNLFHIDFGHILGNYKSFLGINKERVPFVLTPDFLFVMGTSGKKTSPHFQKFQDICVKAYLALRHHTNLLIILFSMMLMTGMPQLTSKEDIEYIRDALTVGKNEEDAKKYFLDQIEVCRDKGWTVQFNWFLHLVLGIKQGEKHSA
Chain of PI3Kδ (O00329 whole entry, species assumed): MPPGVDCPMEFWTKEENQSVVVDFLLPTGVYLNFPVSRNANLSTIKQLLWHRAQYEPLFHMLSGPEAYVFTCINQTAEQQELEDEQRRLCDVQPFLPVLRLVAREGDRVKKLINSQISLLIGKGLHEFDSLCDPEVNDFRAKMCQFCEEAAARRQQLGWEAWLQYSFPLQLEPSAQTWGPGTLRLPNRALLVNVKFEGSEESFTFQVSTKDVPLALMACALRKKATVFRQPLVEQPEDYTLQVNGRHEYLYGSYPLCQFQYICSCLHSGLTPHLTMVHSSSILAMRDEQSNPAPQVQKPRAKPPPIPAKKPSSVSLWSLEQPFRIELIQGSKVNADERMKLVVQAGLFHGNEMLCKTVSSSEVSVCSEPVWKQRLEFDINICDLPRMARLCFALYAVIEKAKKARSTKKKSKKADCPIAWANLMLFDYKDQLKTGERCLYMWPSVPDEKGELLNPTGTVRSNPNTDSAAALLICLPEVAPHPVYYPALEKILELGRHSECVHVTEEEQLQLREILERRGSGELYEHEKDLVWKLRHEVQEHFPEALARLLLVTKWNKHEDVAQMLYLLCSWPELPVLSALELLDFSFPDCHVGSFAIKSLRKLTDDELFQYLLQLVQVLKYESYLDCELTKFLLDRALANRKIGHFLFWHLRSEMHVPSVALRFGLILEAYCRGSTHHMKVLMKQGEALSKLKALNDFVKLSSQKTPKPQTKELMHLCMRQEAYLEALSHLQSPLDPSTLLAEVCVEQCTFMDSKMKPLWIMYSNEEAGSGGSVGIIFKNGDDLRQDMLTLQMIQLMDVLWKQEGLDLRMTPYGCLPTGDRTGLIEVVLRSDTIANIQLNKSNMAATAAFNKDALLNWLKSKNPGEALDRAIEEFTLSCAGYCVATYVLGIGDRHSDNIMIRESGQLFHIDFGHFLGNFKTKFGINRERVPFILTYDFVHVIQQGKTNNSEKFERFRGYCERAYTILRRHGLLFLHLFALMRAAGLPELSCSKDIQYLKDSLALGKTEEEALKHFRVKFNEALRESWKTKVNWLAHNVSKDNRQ
Chain of PI3Kδ (P27986 whole entry partner, species assumed): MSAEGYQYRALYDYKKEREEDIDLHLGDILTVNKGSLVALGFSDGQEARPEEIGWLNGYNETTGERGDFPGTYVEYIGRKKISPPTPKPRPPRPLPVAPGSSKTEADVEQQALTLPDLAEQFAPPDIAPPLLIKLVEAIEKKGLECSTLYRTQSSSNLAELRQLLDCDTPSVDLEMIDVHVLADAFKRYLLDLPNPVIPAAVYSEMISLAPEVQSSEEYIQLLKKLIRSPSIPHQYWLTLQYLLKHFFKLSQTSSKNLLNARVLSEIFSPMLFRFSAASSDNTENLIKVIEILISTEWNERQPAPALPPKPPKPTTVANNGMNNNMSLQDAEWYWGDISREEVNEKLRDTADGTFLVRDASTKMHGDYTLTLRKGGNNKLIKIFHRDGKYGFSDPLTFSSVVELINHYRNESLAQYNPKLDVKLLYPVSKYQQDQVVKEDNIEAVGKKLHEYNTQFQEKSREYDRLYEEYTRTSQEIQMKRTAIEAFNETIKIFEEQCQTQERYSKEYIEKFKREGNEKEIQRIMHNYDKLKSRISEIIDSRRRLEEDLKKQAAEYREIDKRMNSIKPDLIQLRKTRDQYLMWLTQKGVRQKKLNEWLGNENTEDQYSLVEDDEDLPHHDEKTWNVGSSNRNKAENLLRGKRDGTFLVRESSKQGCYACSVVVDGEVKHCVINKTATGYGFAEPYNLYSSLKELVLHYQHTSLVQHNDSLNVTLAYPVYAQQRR
Chain of PI3Kα (P42336 whole entry, species assumed): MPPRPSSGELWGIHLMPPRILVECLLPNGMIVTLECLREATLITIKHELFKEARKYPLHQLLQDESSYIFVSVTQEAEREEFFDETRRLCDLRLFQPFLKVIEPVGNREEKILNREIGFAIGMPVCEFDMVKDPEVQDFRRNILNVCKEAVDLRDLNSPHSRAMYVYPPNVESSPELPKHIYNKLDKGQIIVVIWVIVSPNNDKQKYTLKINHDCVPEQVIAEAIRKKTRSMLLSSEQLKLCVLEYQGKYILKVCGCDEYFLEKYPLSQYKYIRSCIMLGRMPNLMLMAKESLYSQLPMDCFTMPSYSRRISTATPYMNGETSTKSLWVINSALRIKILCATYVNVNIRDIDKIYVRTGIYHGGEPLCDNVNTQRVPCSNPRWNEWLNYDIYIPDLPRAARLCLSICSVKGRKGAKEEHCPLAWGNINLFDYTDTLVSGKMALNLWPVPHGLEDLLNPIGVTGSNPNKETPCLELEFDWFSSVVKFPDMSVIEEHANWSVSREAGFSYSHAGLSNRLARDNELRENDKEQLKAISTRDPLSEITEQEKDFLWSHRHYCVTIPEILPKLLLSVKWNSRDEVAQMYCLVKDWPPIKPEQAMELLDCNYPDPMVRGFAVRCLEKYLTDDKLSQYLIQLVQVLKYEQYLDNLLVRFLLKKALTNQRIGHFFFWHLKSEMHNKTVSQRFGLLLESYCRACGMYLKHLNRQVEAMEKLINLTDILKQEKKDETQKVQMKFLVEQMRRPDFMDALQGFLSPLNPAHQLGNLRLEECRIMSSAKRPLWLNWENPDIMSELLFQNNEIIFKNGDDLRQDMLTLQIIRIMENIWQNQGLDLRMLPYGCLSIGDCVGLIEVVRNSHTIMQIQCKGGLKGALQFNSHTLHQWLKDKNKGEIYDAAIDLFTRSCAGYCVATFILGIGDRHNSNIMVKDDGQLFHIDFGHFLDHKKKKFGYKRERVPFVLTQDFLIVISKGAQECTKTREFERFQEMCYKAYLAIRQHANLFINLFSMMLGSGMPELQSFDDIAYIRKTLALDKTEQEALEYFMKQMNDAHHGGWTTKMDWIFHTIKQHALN
Chain of PI3Kα (P27986 whole entry partner, species assumed): as the sequence (P27986 whole entry partner, species assumed) above
Chain of PI3Kβ (P42338 whole entry, species assumed): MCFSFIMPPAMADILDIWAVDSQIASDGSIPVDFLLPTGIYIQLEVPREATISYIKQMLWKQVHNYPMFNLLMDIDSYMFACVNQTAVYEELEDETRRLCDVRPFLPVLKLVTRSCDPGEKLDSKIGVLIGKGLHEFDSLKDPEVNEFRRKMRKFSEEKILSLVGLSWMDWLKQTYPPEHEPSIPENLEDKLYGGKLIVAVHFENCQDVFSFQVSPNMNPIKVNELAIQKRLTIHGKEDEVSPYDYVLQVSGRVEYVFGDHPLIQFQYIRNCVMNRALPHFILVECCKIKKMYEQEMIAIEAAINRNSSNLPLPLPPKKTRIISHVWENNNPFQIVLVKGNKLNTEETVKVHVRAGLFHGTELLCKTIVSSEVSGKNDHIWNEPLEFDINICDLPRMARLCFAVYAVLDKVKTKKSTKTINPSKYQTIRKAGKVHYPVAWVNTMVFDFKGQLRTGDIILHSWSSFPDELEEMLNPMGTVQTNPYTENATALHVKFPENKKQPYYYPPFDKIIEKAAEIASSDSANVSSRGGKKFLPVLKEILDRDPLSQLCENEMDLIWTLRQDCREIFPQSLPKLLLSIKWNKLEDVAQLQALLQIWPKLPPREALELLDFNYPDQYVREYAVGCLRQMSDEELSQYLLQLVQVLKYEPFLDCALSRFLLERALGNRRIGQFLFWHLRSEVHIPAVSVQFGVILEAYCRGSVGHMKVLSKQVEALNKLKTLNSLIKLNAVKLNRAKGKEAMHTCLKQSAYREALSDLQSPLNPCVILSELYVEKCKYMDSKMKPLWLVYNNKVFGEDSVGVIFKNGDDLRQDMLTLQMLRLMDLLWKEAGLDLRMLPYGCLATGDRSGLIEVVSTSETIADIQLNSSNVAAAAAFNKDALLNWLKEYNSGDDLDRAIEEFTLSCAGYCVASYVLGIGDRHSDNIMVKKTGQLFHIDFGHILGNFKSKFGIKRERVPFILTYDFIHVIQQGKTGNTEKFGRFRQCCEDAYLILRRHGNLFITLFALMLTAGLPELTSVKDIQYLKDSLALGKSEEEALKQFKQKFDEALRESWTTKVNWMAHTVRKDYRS
Chain of PI3Kβ (P27986 whole entry partner, species assumed): as the sequence (P27986 whole entry partner, species assumed) above

SMILES: COc1ccc(-c2ccc3c(N4CCOC[C@H]4C)nc(N4CCOC[C@H]4C)nc3n2)cc1CO [AZD 8055]
IC50 (Class 1 PI3K isoforms): > 1000 nM

Kp at 0.5 h ([1]; mouse, mesenteric lymph node / plasma, 0.5 hours, read-out: lymph/plasma ratio): ~0.6 | Kp at 4 h [1, 3]: ~1 | concentration at 4 h ([1]; mouse, mesenteric lymph node, read-out: lymphatic concentration): ~85 ng/mL | concentration at 4 h ([1]; mouse, plasma, read-out: plasma concentration): ~95 ng/mL
SMILES: O=C(NCCOCCOCCOCCNC(=O)c1ccccc1)c1ccccc1 [Compound 1]

Kp ([1]; mouse, mesenteric lymph node / plasma, between time points 0.5, 2, and 4 hours, read-out: lymph/plasma ratios): 3 to 5
SMILES: O=C(NCCCCCCCCCCCNC(=O)c1ccccc1)c1ccccc1 [Compound 2]
concentrations in tissues tested, compared to Compound 1 ([1]; plasma, mesenteric lymph node, fat): much lower concentrations in all tissues tested

Kp at 4 h [1, 3]: ~5
SMILES: O=C(NCCOCCOCCOCCNC(=O)c1cccc2ccccc12)c1cccc2ccccc12 [Compound 3]

Kp at 4 h [1, 3]: ~6
SMILES: O=C(NCCCCCCCCCCCNC(=O)c1cccc2ccccc12)c1cccc2ccccc12 [Compound 4]

SMILES: O=C(NOC[C@H](O)CO)c1ccc(F)c(F)c1Nc1ccc(I)cc1F [Compound 901, reference compound]
Kp at 4 h [2]: ~1.2

IC50 (MEK1): 72.3 ± 1.9 nM
SMILES: O=C(O)CCOCCOCCOCCONC(=O)c1ccc(F)c(F)c1Nc1ccc(I)cc1F [MV6-8]

IC50 (PI3Kδ): 11.7 ± 2.2 nM | IC50 (PI3Kγ): 55.2 ± 11.5 nM | IC50 (PI3Kα): 10.3 ± 1 nM | IC50 (PI3Kβ): 404 ± 63 nM
SMILES: CC(=O)N(C)CCNc1nc(N2CCOCC2)nc(-n2c(C(F)F)nc3ccccc32)n1 [ST-5-31]

IC50 (PI3Kδ): 9.9 ± 0.4 nM | IC50 (PI3Kγ): 14.6 ± 1.4 nM | IC50 (PI3Kα): 3.74 ± 1 nM | IC50 (PI3Kβ): 74 ± 5.7 nM
SMILES: OCCN(CCO)c1nc(N2CCOCC2)nc(-n2c(C(F)F)nc3ccccc32)n1 [ST-5-32]
